Measured values published in patent US12065512B2, “Cyclic peptide and a medicament, external preparation and cosmetic comprising said cyclic peptide” (Igisu Co., Ltd., priority 2015, dated 2024).
“Also recorded” adds a separate entry of the source. Positions of bridges follow the written chain, without caps; N, C: chain ends. No end group written: not given here.

Experiments:
Format in all cases: in vivo, human
[1] = system: symptoms associated to various alopecia; experiment: Therapeutic effect on alopecia: gel formulation applied to decalvant site; conditions: 1 μmol, 1 application/day, continued; male alopecia, right side
Experimental: 5. Confirming Therapeutic Effect on Alopecia Either B ring gel formulation or BNP gel formulation was applied, and their effects on symptoms associated to various alopecia were observed (Table below). The changes in symptoms were determined based on physical sensory evaluation by the subject and our objective observation as physicians.

[2] = system: normal subjects who had symptoms of roughened lips; experiment: Mucosal condition of roughened lips upon application of B ring gel formulation; conditions: 1 application
Experimental: The B ring gel formulation was applied to normal subjects who had symptoms of roughened lips, and changes in mucosal condition were observed (Table below). The changes in mucosal conditions were determined based on physical sensory evaluation by the subject and our objective observation as physicians.

[3] = system: skin condition of the subjects; experiment: Skin condition upon using bath agent comprising B ring; conditions: bath in 37 to 41° C. hot water with 0.01 μM, once a day for 14 days
Experimental: 4.4 Observation on Skin Condition Upon Using Bath Agent Comprising B Ring
Subjects were given bath in 37 to 41° C. hot water comprising B ring dissolved at 0.01 μM (100 ml of 20 μM B ring solution dissolved in 200 L hot water) once a day for 14 days, and skin condition of the subjects was compared to the case of hot water alone (Table 14). The changes in skin conditions were determined based on physical sensory evaluation by the subject and our objective observation as physicians.

[4] = system: normal subjects who had symptoms of scalp/hair; experiment: Scalp/hair condition upon application of B ring gel formulation
Experimental: 4.3 Observation on scalp/hair condition upon application of B ring gel formulation. The B ring gel formulation was applied to normal subjects who had symptoms of scalp/hair, and changes in conditions of scalp and hair were observed (Table below). The changes in scalp/hair were determined based on physical sensory evaluation by the subject and our objective observation as physicians.

[5] = system: skin conditions of subjects; experiment: Skin-improving (cosmetic) effect of gel formulation applied to face
Experimental: 4.1.1 Confirming Skin-Improving Effect (Comparing B Ring Gel Formulation to BNP Gel Formulation)
The B ring gel formulation or BNP gel formulation was applied to subjects. The B ring gel formulation was applied on the right cheek or eye of each subject, the BNP gel formulation on the left cheek or eye, and changes in skin conditions were observed and compared (Table below). The changes in skin conditions were determined based on physical sensory evaluation by the subject and our objective observation as physicians.
Table below summarizes examples in which B ring gel formulation was applied without applying two-sided. The changes in skin conditions were determined by similar method as described above.
4.1.2 Confirming Skin-Improving Effect (Comparing B Ring Gel Formulation to Gel Base)
In order to examine the presence or absence of the contribution by the gel base to the effects of B ring gel formulation and BNP gel formulation, three subjects were administered B ring gel formulation on their right face and the gel base on the left, and changes in skin conditions on the subject's faces were observed (Table below).

[6] = system: subjects suffering various dermatitis; experiment: B ring gel formulation versus gel base by two-sided application in dermatitis; conditions: right side B ring, left side gel base; atopic dermatitis or chronic eczema
Text: 3.2 Comparing B Ring Gel Formulation to Gel Base by Two-Sided Application For subjects suffering various dermatitis, either B ring gel formulation or the gel base was applied to the affected site, and changes in symptoms before and after the application were observed (Table below).

skin, affected site = experiment: Cyclic peptides with amino acid replacement: effects on skin (formulations A to E = 3, 15, 30, 100, 500 μg/ml in purified water)
Experimental: Next, cyclic peptides with some replaced amino acid were subjected to following examination in order to confirm their effect. The methods for preparing the above cyclic peptide and confirming amino acid sequence of the prepared peptide were same as the method for preparing the cyclic peptide as described above and Mass spectroscopy method.
9.2 Confirming Effects on Skin
The obtained cyclic peptide was prepared in purified water at 3, 15, 30, 100 or 500 μg/ml and applied to affected site. Each of formulations A to E in the table indicates the concentration of the cyclic peptide at 3, 15, 30, 100 or 500 μg/ml, respectively. The absence of the effect upon the application of purified water without the peptide confirmed the effect was not a placebo effect.

[7] = formulation C = 30 μg/ml cyclic peptide in purified water, applied to affected site, one line per subject (ID Q..), diagnosis and treatment as in the table line
[8] = eczema, formulation C (30 μg/ml in purified water), once a day
[9] = atopic dermatitis, formulation C (30 μg/ml in purified water), once a day
[10] = chronic eczema, formulation C (30 μg/ml in purified water), once a day
[11] = roughened skin, formulation C (30 μg/ml in purified water), once a day

In the case of “Cys-Phe-Gly-Arg-Lys-Met-Asp-Arg-Ile-Ser-Ser-Ser-Ser-Gly-Leu-Gly-Cys (CFGRKMDRISSSSGLGC; disulfide 1-17; ends not checked) [B ring]”, the “Post-application symptoms (alopecia)” value [1] is reported as 7 weeks after application, hair became elastic and formulation exhibited more remarkable hair-, the “Post-application symptoms (lips, mucosal condition)” value ([2]; 0.5 μmol) is reported as 3 min after application, lips became moisturized and the “Post-application symptoms (lips, mucosal condition)” value ([2]; 1 μmol) is reported as 2 min after application, cracks on mouth corner were remitted and Skin became moisturized soon after application. After 2 min,. The “Post-application symptoms (lips, mucosal condition)” value ([2]; 2 μmol) was “After 2 min, lips were full and soft, and wrinkles were less; also recorded: After 2 min, lips were full, soft and moisturized, and wrinkles”, the “Changes in subjective symptoms” value [3] was “Remission of itch and pain; also recorded: Relief of pain; also recorded: Itches after bath was remitted” and the Post-application symptoms [3] was “ameliorating effect on miliaria, cracked or chapped skin; also recorded: Remission of desiccatinn; also recorded: Remission of flare and milaria; also recorded: Cracks gradually became; also recorded: Gradual remission of erythema”. The “Post-application symptoms (scalp/hair)” value ([4]; 1 μmol, 1 application/day (5 days, 3 weeks or continued), daily for 3 weeks) was “Hair growth was stimulated, and an increase in hair volume”, the “Post-application symptoms (scalp/hair)” value ([4]; 1 μmol, 1 application/day (5 days, 3 weeks or continued), daily for 5 days) was “A decrease in falling hair was observed, showing an effect” and the “Post-application symptoms (scalp/hair)” value ([4]; 1 μmol, 1 application/day (5 days, 3 weeks or continued), daily, continued post partum) was “growth was stimulated, improving thinning of hair”. For the same substance, the “Post-application symptoms (scalp/hair)” value ([4]; 2 μmol, 1 application) was “After 2 min, itches were removed, scalp seborrhea and; also recorded: After 1 min. itches were removed. After 2 min, scalp; also recorded: After 2 min, itches were removed, scalp seborrhea was improved”, the “Skin-improving effect, summary” value ([5]; compared to site where BNP gel formulation had been applied, FIG. 1) was “has a skin moisturizing effect and is capable of improving skin texture” and the “Post-application symptoms (skin condition)” value ([5]; concentration not printed (about 1 μM), right face, gel base on the left) was 1 min after application, skin tingling sensation. For the same substance, the Post-application symptoms [6] was “Flare remitted soon after application. After; also recorded: Flare started to fade soon after application,; also recorded: Flare remitted soon after application,; also recorded: Flare and pigmentation removed 2.5 min after”.
“SEQ ID NO 16 (CFVRKMDRISSSSGLGC; disulfide 1-17)” was tested, and the “Diagnostic impression on skin after application” value (shortened to “Diagnostic impression on skin”) (skin, affected site; [7]) was “After 3 minutes, erythema was remitted”.
“SEQ ID NO 18 (CFGHKMDRISSSSGLGC; disulfide 1-17)” was tested, and the “Diagnostic impression on skin” value (skin, affected site; [7]) was “After 2 minutes, redness was remitted”.
For “SEQ ID NO 26 (CFGRKMDRISSVSGLGC; disulfide 1-17)”, the “Diagnostic impression on skin” value (skin, affected site; [7]) was “After 2 minutes, remitted”.
For “SEQ ID NO 39 (CFSRKMDRISSSSGLGC; disulfide 1-17)”, the “Diagnostic impression on skin” value (skin, affected site; [7]) was “After 3 minutes, nodes were flattened”.
In the case of “SEQ ID NO 42 (CFGRKMDRISSASGLGC; disulfide 1-17)”, the “Diagnostic impression on skin” value (skin, affected site; acne, formulation C (30 μg/ml in purified water), once a day) is reported as “After 1 minute, redness was remitted”, the Itches after application (skin, affected site; atopic dermatitis, formulation B (15 μg/ml in purified water), once a day) is reported as “Iches were eliminated” and the “Diagnostic impression on skin” value (skin, affected site; [8]) is reported as “After 3 minutes, erythema and dry skin”.
“SEQ ID NO 43 (CFGRKMDRISSSTGLGC; disulfide 1-17)” was tested, and the “Diagnostic impression on skin” value (skin, affected site; [9]) was “After 2 minutes, no discomfort, felt”, the Itches after application (skin, affected site; [9]) was “After 3 minutes,” and the “Diagnostic impression on skin” value (skin, affected site; [8]) was “After 1 minute, redness and infiltration”. For the same substance, the Itches after application (skin, affected site; [8]) was “Iches were eliminated”, the “Diagnostic impression on skin” value (skin, affected site; rosacae/acne, formulation C (30 μg/ml in purified water), once a day) was “After 7 minutes, acne was reduce and” and the “Diagnostic impression on skin” value (skin, affected site; roughened lips, formulation C (30 μg/ml in purified water), once a day) was 1 minute after application, dry skin. The “Diagnostic impression on skin” value (skin, affected site; roughened skin, formulation B (15 μg/ml in purified water), once a day) was “After 3 minutes, redness and dry skin”.
In the case of “SEQ ID NO 44 (CFGRKMDRISSSAGLGC; disulfide 1-17)”, the “Diagnostic impression on skin” value (skin, affected site; [8]) is reported as “After 1 minute, erythema and infiltration”, the Itches after application (skin, affected site; [8]) is reported as “Iches were remitted” and the “Diagnostic impression on skin” value (skin, affected site; healthy skin, formulation B (15 μg/ml in purified water), once a day) is reported as “Skin got moisturized promptly, wrinkles”.
For “SEQ ID NO 47 (CFSRKMDRISSSTGLGC; disulfide 1-17)”, the “Diagnostic impression on skin” value (skin, affected site; [10]) was “Immediately after application, erythema”.
For “SEQ ID NO 49 (CFSRKMDRISSSSGLAC; disulfide 1-17)”, the “Diagnostic impression on skin” value (skin, affected site; [10]) was “Immediately after application, erythema”.
With “SEQ ID NO 53 (CFGRRMDRISSSSGLAC; disulfide 1-17)” the “Diagnostic impression on skin” value (skin, affected site; [8]) was “After 1 minute, erythema and infiltration”.
“SEQ ID NO 58 (CFGRKMDRISSSSGIAC; disulfide 1-17)” was tested, and the “Diagnostic impression on skin” value (skin, affected site; [8]) was “After 2 minutes, erythema, scales,”.
For “SEQ ID NO 60 (CFSRRMDRISSSTGLGC; disulfide 1-17)”, the “Diagnostic impression on skin” value (skin, affected site; [10]) was “Immediately after application, erythema”.
In the case of “SEQ ID NO 61 (CFSRRMDRISSSSGIGC; disulfide 1-17)”, the “Diagnostic impression on skin” value (skin, affected site; chronic, formulation C (30 μg/ml in purified water), once a day) is reported as “Immediately after application, erythema”.
With “SEQ ID NO 63 (CFSRKMDRISSTSGIGC; disulfide 1-17)” the “Diagnostic impression on skin” value (skin, affected site; eczema, formulation B (15 μg/ml in purified water), once a day) was “After 3 minutes, erythema and scales”.
For “SEQ ID NO 64 (CFSRKMDRISSSTGIGC; disulfide 1-17)”, the “Diagnostic impression on skin” value (skin, affected site; [10]) was “Immediately after application, erythema”.
With “SEQ ID NO 65 (CFSRKMDRISSSTGLAC; disulfide 1-17)” the “Diagnostic impression on skin” value (skin, affected site; [11]) was “After 1 minute, skin got moisturized and”.
For “SEQ ID NO 68 (CFGRRMDRISSTSGLAC; disulfide 1-17)”, the “Diagnostic impression on skin” value (skin, affected site; [10]) was “Immediately after application, erythema”.
For “SEQ ID NO 69 (CFGRRMDRISSSTGIGC; disulfide 1-17)”, the “Diagnostic impression on skin” value (skin, affected site; [8]) was “After 2 minutes, erythema, scales,”.
With “SEQ ID NO 70 (CFGRRMDRISSSTGLAC; disulfide 1-17)” the “Diagnostic impression on skin” value (skin, affected site; [10]) was “immediately after application, erythema” and the “Diagnostic impression on skin” value (skin, affected site; [11]) was “Redness vanished in 30 seconds. After 1”.
For “SEQ ID NO 72 (CFSRRMDRISSTSGLAC; disulfide 1-17)”, the “Diagnostic impression on skin” value (skin, affected site; [10]) was “Immediately after application, erythema,”.
“SEQ ID NO 73 (CFSRRMDRISSSTGIGC; disulfide 1-17)” was tested, and the “Diagnostic impression on skin” value (skin, affected site; [10]) was “Immdediately after application, erythema”.
For “SEQ ID NO 74 (CFSRRMDRISSSTGLAC; disulfide 1-17)”, the “Diagnostic impression on skin” value (skin, affected site; chronic eczema, formulation D (100 μg/ml in purified water), once a day) was “Iches were eliminated immediately after” and the “Diagnostic impression on skin” value (skin, affected site; [11]) was “After 1 minute, rawness and hot flash”.
“SEQ ID NO 75 (CFSRRMDRISSSSGIAC; disulfide 1-17)” was tested, and the “Diagnostic impression on skin” value (skin, affected site; [8]) was “After 2 minutes, erythema, scalesm”.
In the case of “Ser-Pro-Lys-Met-Val-Gln-Gly-Ser-Gly-Cys-Phe-Gly-Arg-Lys-Met-Asp-Arg-Ile-Ser-Ser-Ser-Ser-Gly-Le u-Gly-Cys-Lys-Val-Leu-Arg-Arg-His [BNP, reference compound]”, the “Changes in subjective symptoms” value [3] is reported as “No subjective remission of skin” and the Post-application symptoms [3] is reported as “No remission of skin desiccation”.
